From US20060135515A1, “Heterocyclic amides and their use treating thromboembolic diseases and tumors” (priority 2002, published 2006)

Assays:
[1] = biological target: FXa (Homo sapiens, UniProt P00742); assay: Inhibition of factor Xa (FXa-IC50); format: biochemical
From the text: The inhibition of factor Xa by the compounds according to the invention and the measurement of the anticoagulant and antithrombotic activity can be determined by conventional in-vitro or in-vivo methods. A suitable method is described, for example, by J. Hauptmann et al. in Thrombosis and Haemostasis 1990, 63, 220-223.
The inhibition of factor Xa can be measured, for example by the method of T. Hara et al. in Thromb. Haemostas. 1994, 71, 314-319.

[2] = biological target: TF/FVIla (Homo sapiens, UniProt P08709); assay: Inhibition of TF/factor VIIa (TF/FVIIa-IC50); format: biochemical
From the text: The inhibition of factor VIIa by the compounds according to the invention and the measurement of the anticoagulant and antithrombotic activity can be determined by conventional in-vitro or in-vivo methods. A conventional method for the measurement of the inhibition of factor VIIa is described, for example, by H. F. Ronning et al. in Thrombosis Research 1996, 84, 73-81.

Chain of TF/FVIla (P08709 213-466 limits assumed): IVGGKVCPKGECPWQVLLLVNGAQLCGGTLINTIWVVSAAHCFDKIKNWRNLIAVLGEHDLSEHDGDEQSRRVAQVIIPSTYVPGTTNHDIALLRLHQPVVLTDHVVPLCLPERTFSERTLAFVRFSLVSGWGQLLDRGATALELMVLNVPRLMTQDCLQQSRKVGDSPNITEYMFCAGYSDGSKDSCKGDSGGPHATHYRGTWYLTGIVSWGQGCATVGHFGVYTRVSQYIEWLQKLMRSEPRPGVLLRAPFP
Chain of TF/FVIla (P08709 61-212 partner limits assumed): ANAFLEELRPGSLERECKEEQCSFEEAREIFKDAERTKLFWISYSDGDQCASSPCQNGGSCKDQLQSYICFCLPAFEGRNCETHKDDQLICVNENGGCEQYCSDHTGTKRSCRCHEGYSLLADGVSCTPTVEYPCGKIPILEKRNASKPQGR
Chain of TF/FVIla (P13726 33-295 partner): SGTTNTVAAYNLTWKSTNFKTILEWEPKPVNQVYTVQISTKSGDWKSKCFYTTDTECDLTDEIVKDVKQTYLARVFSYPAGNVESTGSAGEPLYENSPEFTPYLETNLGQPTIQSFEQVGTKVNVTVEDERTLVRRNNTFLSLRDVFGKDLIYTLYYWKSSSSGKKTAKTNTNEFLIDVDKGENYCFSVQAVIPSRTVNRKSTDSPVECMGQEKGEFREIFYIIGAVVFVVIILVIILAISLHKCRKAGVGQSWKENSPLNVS
Chain of FXa (P00742 235-488 limits assumed): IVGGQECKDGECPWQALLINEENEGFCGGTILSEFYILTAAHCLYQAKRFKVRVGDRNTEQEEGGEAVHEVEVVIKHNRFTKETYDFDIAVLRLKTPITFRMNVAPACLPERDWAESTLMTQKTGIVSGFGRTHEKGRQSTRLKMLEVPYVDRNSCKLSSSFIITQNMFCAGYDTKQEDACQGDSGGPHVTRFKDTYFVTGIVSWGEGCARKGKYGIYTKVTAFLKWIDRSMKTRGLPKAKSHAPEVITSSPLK
Chain of FXa (P00742 41-179 partner limits assumed): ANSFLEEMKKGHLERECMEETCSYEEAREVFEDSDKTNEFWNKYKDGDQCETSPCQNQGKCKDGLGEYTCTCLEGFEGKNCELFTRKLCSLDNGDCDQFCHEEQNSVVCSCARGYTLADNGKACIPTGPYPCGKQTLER

Row | IC50 [1] | IC50 [2] | Compound
1 | 190 nM | 180 nM | CCCC(NC(=O)Nc1ccc(Cl)s1)C(=O)Nc1ccc(N2CCOCC2=O)cc1 (stereo not shown) [Compound A1, N-[4-(3-oxomorpholin-4-yl)-phenyl]-2-[3-(5-chlorothiophen-2-yl)ureido]valeramide]
2 | 66 nM | 66 nM | CCC[C@@H](NC(=O)Nc1ccc(Cl)s1)C(=O)Nc1ccc(N2CCOCC2=O)c(C)c1 [Compound A2, (R)-2-[3-(5-chlorothiophen-2-yl)ureido]-N-[4-(3-oxomorpholin-4-yl)-3-methylphenyl]valeramide]
